Measurements as given in patent publication US20160022689A1, “Triazine compound for resisting coccidiosis in chickens” (SHANGHAI VETERINARY RESEARCH INSTITUTE, CHINESE ACADEMY OF …, priority 2013, published 2016).
Values joined by “and” are separate entries in the source; they are usually repeats but may differ in a detail not shown here. Equal values may be shown once. Read-outs that look alike come from different tables or passages of the source.

Legend:
Sprague Dawley rats = assay: Acute toxicity test (LD50) of AZL in rats, oral gavage; assay type: in vivo, rat; settings: oral gavage once, 14 days
Experimental: (§1) Acute Toxicity Test (LD50) of AZL in Rats
(§2) AZL (99.10%): made by Shanghai Veterinary Research Institute, CAAS
(§3) Drug solvent: 0.5% sodium carboxymethyl cellulose
(§4) Before administration, AZL was added into 0.5% sodium carboxymethyl cellulose to prepare suspensions at different concentrations.
(§5) 1.2 Experimental animals: Specific pathogen-free (SPF) Sprague Dawley rats (50% female vs 50% male) were purchased from Shanghai Super-B&K laboratory animal Co., Ltd. (license number: SCXK (Hu): 2008-0016). Male and female rats were raised separately in the cages for more than 4 days before the experiments.
(§6) Through repeated preliminary experiments, the interval of LD0-LD100 was determined According to this interval, groups were divided and the interval between groups was determined. Eighty rats (180-220 g) were selected and randomly divided into 8 groups. Each group had 10 rats, with the same number of female and male. Drug dosage in 7 groups were 2358, 3000, 3817, 4856, 6178, 7860, and 10000 mg/kg, respectively. The rats in these groups received oral gavage once. The remaining one group was chosen as negative control group which was drenched orally with drug solvent. After administration, this group was continuously observed for 14 days to calculate the death rate.

[1] = as above; assay type: in vivo, rat; settings: both sexes, Sprague Dawley, rat, in vivo, po, single oral gavage, improved Karber's method
Experimental: as §1, §2, §3, §4, §5, §6

Eimeria tenella = assay: AZL application in preventing the coccidiosis induced by Eimeria tenella (drug in feed, infected cockerels); assay type: in vivo; design: key to ACI (anticoccidial index): ACI = (rel. weight gain + survival) − (lesion score + oocyst value); key to Cecal lesion score: average Johnson-Reid lesion score in group ×10; settings: for ACI (anticoccidial index): ACI=(relative weight gain rate+survival rate)-(cecal lesion score+oocyst value); for Cecal lesion score: average lesion score in group x10; for Survival rate %: cockerels infected with 80000 sporulated oocysts of Eimeria tenella; for Relative weight gain rate %: relative to healthy control group; for Oocyst value: score from OPG ratio to infection control
Experimental: Application of AZL in Preventing the Coccidiosis Induced by Eimeria tenella
One-day-old Pudong yellow feather cockerels
If needed, it is added into the chicken compound feed without other drugs and well mixed. Two AZL concentrations are set: 5 mg/kg and 10 mg/kg.
If needed, it is added into the compound feed without other drugs and well mixed. Two drug concentrations are set: 5 mg/kg and 10 mg/kg.
4) Raw diclazuril material: If needed, it is added into the compound feed without other drugs and well mixed, with the diclazuril concentration of 1 mg/kg.
After 90 one-day-old Pudong yellow feather cockerels were raised in the healthy animal room for 14 days. They were divided into 9 groups randomly, with 10 cockerels each group. One of these groups was the healthy control group. The AZL addition groups had two different treatments (5 mg/kg and 10 mg/kg). In the groups with the addition of compounds with structural formula (IV) and (V) respectively, two concentrations were set as AZL. The diclazuril addition group at the concentration of 1 mg/kg was taken as drug control group. Besides, an infection control group was also established.
After grouping, the seven drug addition groups were fed with the feed containing specified drugs, while infection and healthy control groups were fed using pure feed without drugs. Each group drank freely. At the age of 15 day old, each cockerel in all the groups was infected with 80000 sporulated oocysts of Eimeria tenella, except for the healthy control group.
During the experimental period, food and water intake, mental state, illness and bloody stool were observed and recorded every day. At 5, 6 and 7 d after infection, the excrement in each group was collected to count the number of oocysts. The highest value was used for ACI calculation. During the experimental period, chicken death status was observed every day and the dead ones were autopsied. On the 8th day, chickens in all the groups were weighted and killed to observe and record weight gain and cecal lesion status.
1.5.1 Death rate: The percentage of the number of dead chicken because of infection to total number of experimental chicken.
1.5.2 Relative weight gain rate: The percentage of average weight gain of chickens in each infection group to that in the healthy control group
1.5.3 Cecal lesion score: It is scored by referring to the method by Johnson and Reid (Johnson J, Reid W M. Anticoccidial drugs: lesion scoring techniques in battery and floor-pan experiments with chickens.
Experimental Parasitology, 1970, 28 (1): 30-36). Cecal lesion score=average lesion score in a group×10.
1.5.4 Oocyst value: Cecal contents from all the chickens in each group were well mixed. The number of oocysts per gram (OPG) was calculated via Mc-Master's method. Ratio of oocyst number=(OPG in the negative control group or drug addition group÷OPG in the positive control group)×100% If the ratio is 0-1%, oocyst value is 0; if the ratio is 2%-25%, oocyst value is 5; if the ratio is 26%-50%, oocyst value is 10; if the ratio is 51%-75%, oocyst value is 20; if the ratio is 76%-100%, oocyst value is 40.
1.5.5 Anticoccidial index: ACI=(relative weight gain rate+survival rate)−(cecal lesion score+oocyst value)

rats = settings: acute oral, improved Karber's method; cited from earlier work
[2] = drug concentration in feed 5 mg/kg
[3] = drug concentration in feed 10 mg/kg
[4] = drug concentration in feed 1 mg/kg

| SMILES | ACI (anticoccidial index) (Eimeria tenella; [2]) | Cecal lesion score (Eimeria tenella; [2]) | Survival rate % (Eimeria tenella; [2]) [%] | Relative weight gain rate % (Eimeria tenella; [2]) [%] | Oocyst value (Eimeria tenella; [2]) | ACI (anticoccidial index) (Eimeria tenella; [3]) | Cecal lesion score (Eimeria tenella; [3]) | Survival rate % (Eimeria tenella; [3]) [%] | Relative weight gain rate % (Eimeria tenella; [3]) [%] | Oocyst value (Eimeria tenella; [3]) | further results |
| --- | --- | --- | --- | --- | --- | --- | --- | --- | --- | --- | --- |
| CC(=O)Nc1ccc(Oc2ccc(-n3ncc(=O)[nH]c3=O)cc2C)cc1 [AZL, 2-{3-methyl-4-(4′-acetamidophenoxy)phenyl}-1,2,4-triazine-3,5(2H,4H)^− diketone] | 180.8 | 5 | 100 | 90.8 | 5 | 189 and 189.1 | 5 | 100 | 99.1 | 5 | Death rate % (Sprague Dawley rats; dosage 2358 mg/kg): 0%; Death rate % (Sprague Dawley rats; dosage 3000 mg/kg): 30%; Death rate % (Sprague Dawley rats; dosage 3817 mg/kg): 50%; Death rate % (Sprague Dawley rats; dosage 4856 mg/kg): 50%; Death rate % (Sprague Dawley rats; dosage 6178 mg/kg): 70%; Death rate % (Sprague Dawley rats; dosage 7860 mg/kg): 70%; Death rate % (Sprague Dawley rats; dosage 10000 mg/kg): 90%; LD50 at 14 days ([1]; 14 days observation, read-out: LD50): 4740 mg/kg; LD50 at 14 days ([1]; read-out: 95% confidence limit of LD50): 3750 to 5990 mg/kg; ACI (anticoccidial index) (Eimeria tenella; drug concentration in feed 10 mg/kg, listed as compound with structural formula (I)): 189 |
| Cc1cc(-n2ncc(=O)[nH]c2=O)ccc1Oc1ccc([N+](=O)[O-])cc1 [Compound with structural formula IV, 2-{3-methyl-4-(4′-nitrophenoxy)phenyl}-1,2,4-triazine-3,5(2H,4H)-diketone, reference compound] | 182.2 | 5 | 100 | 92.2 | 5 | 190.0 | 5 | 100 | 95.0 | 0 | 95% confidence limit of LD50 (rats): 644 to 916 mg/kg; median lethal dose (LD50) (rats): 768 mg/kg |
| Cc1cc(-n2ncc(=O)[nH]c2=O)ccc1Oc1ccc(N)cc1 [Compound with structural formula V, 2-{3-methyl-4-(4′-aminophenoxy)phenyl}-1,2,4-triazine-3,5(2H,4H)^− diketone] | 151.5 | 15 | 100 | 81.5 | 15 | 158.1 | 10 | 100 | 83.1 | 15 | – |
| N#CC(c1ccc(Cl)cc1)c1c(Cl)cc(-n2ncc(=O)[nH]c2=O)cc1Cl (centres unmarked) [Diclazuril, diclazuril, reference compound] | – | – | – | – | – | – | – | – | – | – | ACI (anticoccidial index) (Eimeria tenella; [4]): 182.1; Cecal lesion score (Eimeria tenella; [4]): 5; Survival rate % (Eimeria tenella; [4]): 100%; Relative weight gain rate % (Eimeria tenella; [4]): 92.1%; Oocyst value (Eimeria tenella; [4]): 5 |
